This series relates to striped stem borer (SSB). In words: Laboratory bioassay, rice stem dipping method, against striped stem borer on rice. The note with it: for Numbers of Dead SSB: four replicates. From the text:
Cotoxicity Coefficient (CTC) value was used to determine an existence of synergic effect between spinetoram and methoxyfenozide in the formulated pesticidal composition.
The CTC value of the formulated composition was used to determine the biological responses to the treatment: additive, synergism, or antagonism. The CTC value of more than 120 indicates a synergistic effect between the combined pesticidal compounds. The CTC value of about 80 to 120 indicates an additive effect between the combined pesticidal compounds. The CTC value of less than 80 indicates antagonistic effect between the combined pesticidal compounds
Pesticidal compositions were prepared by thoroughly mixing spinetoram and methoxyfenozide at various weight ratios as shown in TABLE 3.
The effectiveness of the pesticidal compositions for controlling of striped stem borer on rice was determined using laboratory bioassays, and compared to those of three controls. In the first control, only spinetoram was used for the treatment. In the second control, only methoxyfenozide was used for the treatment. In the third control, no pesticide was used.
The rice stem dipping method based on Standard Method for Bioassay Test (Chinese Standard Method NY/T1154.4-2006: Continuous Immersion Test for Insecticide Systemic Activity) was used to conduct the laboratory bioassays.
Five stems of rice were dipped into the solutions of pestidical compositions for 10 seconds and then taken out for drying in the air. The treated stems were placed into glass tubes. Treatment with water, solvent, and emulsifier alone was used as reference check. There were four replicates for each treatment. About 10±1 larvae of third-instar striped stem borer were placed into each glass tube. The openings of the tubes were covered with gauze. Laboratory bioassays were conducted at room temperature. The number of dead larvae was recorded at 72 hours following the treatment.

Setting [1] is: Chilo suppressalis, in Oryza sativa, 72 h.

Results on 2 molecules are retold here after patent US10542754B2, “Synergistic effect of spinetoram and methoxyfenozide for control of stem borer on rice” (Dow AgroSciences LLC, priority 2014, dated 2020).

One may read the LC50 as the concentration lethal to half of the exposed cells or organisms. As to spinetoram, the “Numbers of Dead SSB” value reads like this: (mass concentration 0.125 mg/L, 72 hours) 0.5; (mass concentration 0.25 mg/L, 72 hours) 2; (mass concentration 0.5 mg/L, 72 hours) 4; (mass concentration 1 mg/L, 72 hours) 6.75; (mass concentration 2 mg/L, 72 hours) 8.5; (mass concentration 4 mg/L, 72 hours) 9.75. Moreover, the “Mortality (%)” value is recorded as 4.55% (mass concentration 0.125 mg/L, third-instar larvae, 72 hours); 18.41% (mass concentration 0.25 mg/L, third-instar larvae, 72 hours); 37.73% (mass concentration 0.5 mg/L, third-instar larvae, 72 hours); 64.09% (mass concentration 1 mg/L, third-instar larvae, 72 hours); 81.14% (mass concentration 2 mg/L, third-instar larvae, 72 hours); 95.23% (mass concentration 4 mg/L, third-instar larvae, 72 hours). In addition, the LC50 (third-instar larvae, 72 hours) was found to be 0.71 µg/mL. For the same molecule, the LC90 (third-instar larvae, 72 hours) came out at 2.76 µg/mL.
Usually mortality stands for the percentage killed. Consider `COc1cccc(C(=O)NN(C(=O)c2cc(C)cc(C)c2)C(C)(C)C)c1C` [Methoxyfenozide, methoxyfenozide], for which, under setting [1], the LC50 is 21.1 µg/mL, the mortality at 2.5 µg/mL was found to be 4.77%, the mortality at 5 µg/mL stood at 13.6% and the mortality at 10 µg/mL amounted to 28.4%. For the same molecule, under setting [1], the mortality at 20 µg/mL turned out to be 43.9%, the mortality at 40 µg/mL is 67.5% and the mortality at 80 µg/mL came out at 87.5%. The “Numbers of Dead SSB” value (mass concentration 2.5 mg/L, 72 hours) is listed as 0.5. Besides, the “Numbers of Dead SSB” value (mass concentration 5 mg/L, 72 hours) turned out to be 1.5. Further, for the setting “mass concentration 10 mg/L, 72 hours”, the “Numbers of Dead SSB” value was 3. The “Numbers of Dead SSB” value (mass concentration 20 mg/L, 72 hours) came out at 7. Besides, the “Numbers of Dead SSB” value (mass concentration 40 mg/L, 72 hours) came to 6.75. In addition, the “Numbers of Dead SSB” value (mass concentration 80 mg/L, 72 hours) was 8.75. Also, under “third-instar larvae, 72 hours”, the LC90 turned out to be 107.74 µg/mL.
